How the values were obtained:
[1] = test system: Caco-2 cells; test: in vitro; settings: Caco-2
Experimental: (§1) The transport buffer solution was HBSS (Hanks' balanced salt solution) and 10 mM HEPES [N-(2-hydroxyethyl)piperazine-N-(2-ethanesulfonic acid) solution], with a pH value of 7.40±0.05; Caco-2 cells were purchased from ATCC.
(§2) Caco-2 cells were seeded at 1×10^5 cells/cm^2 in 96-well BD insert plates of polyethylene terephthalate (PET), and the medium was refreshed every 4-5 days until day 21-28 to form a confluent monolayer. Test compounds were tested in a two-way format at 2 μM in duplicate. Digoxin was added at 10 μM in the two-way format, and nadolol and metoprolol were added at 2 μM in the two-way format. Final concentration of DMSO was adjusted to less than 1%. The plates were incubated in a CO2 incubator at 37±1° C. for 2 h with 5% CO2 at saturated humidity without shaking. All samples were mixed with acetonitrile containing an internal standard, and centrifuged at 4000 rpm for 10 min. 100 microliters of supernatant was diluted with 100 microliters of distilled water for LC/MS/MS analysis. By LC/MS/MS analysis, the concentrations of the test compounds and the reference compound in the initial test article solution, the test article solution and the test compound solution using the peak area ratio of the analyte to the internal standard. After the transport test, the integrity of the Caco-2 cell monolayer was determined by fluorescein yellow exclusion reaction, and the apparent permeability coefficient and efflux ratio were calculated.

[2] = molecular target: JAK1(h) (Homo sapiens (Human), UniProt P23458); test: In vitro activity assay of JAK1 kinase (radiometric, Eurofins); format: biochemical
Experimental: (§3) Recombinant human JAK1, JAK2, JAK3 and TYK2 […], and main instruments and reagents were provided by Eurofins, UK.
(§4) Dilution of JAK2, JAK3 and TYK2: 20 mM 3-(N-morpholino)propanesulfonic acid (MOPS), 1 mM EDTA, 0.01% Brij-35.5% glycerol, 0.1% β-mercaptoethanol, 1 mg/mL BSA; dilution of JAK1: 20 mM TRIS, 0.2 mM EDTA, 0.1% β-mercaptoethanol, 0.01% Brij-35.5% glycerol. All compounds were prepared into a 100% DMSO solution and brought to 50-fold the final assay concentration. The test compounds were diluted in 3-fold concentration gradient with 9 final concentrations from 10 μM to 0.001 μM, wherein DMSO content in the assay reaction was 2%. Working stock solutions of the compounds were added to the assay wells as the first component of the reaction, and then the remaining components were added according to the protocol detailed for the assay below.
(§5) JAK1(h) was incubated with 20 mM Tris/HCl pH 7.5, 0.2 mM EDTA, 500 μM MGEEPLYWSFPAKKK, 10 mM magnesium acetate and [γ-^33P]-ATP (activity and concentration were determined as required). […] 10 μL of the reaction mixture was then added dropwise on a P30 filter pad and washed three times with 0.425% phosphoric acid and once with methanol within 4 minutes, then dried and analyzed using a scintillation counter.

[3] = molecular target: JAK2(h) (Homo sapiens (Human), UniProt O60674); test: In vitro activity assay of JAK2 kinase (radiometric, Eurofins); format: biochemical
Experimental: as §3, §4
JAK2(h) was incubated with 8 mM MOPS pH 7.0, 0.2 mM EDTA, 100 μM […], 10 mM magnesium acetate and [γ-^33P]-ATP (activity and concentration were determined as required). The reaction was started by adding the Mg/ATP mixture and terminated by adding 0.5% phosphoric acid after 40 min of incubation at room temperature. 10 μL of the reaction mixture was then added dropwise on a P30 filter pad and washed three times with 0.425% phosphoric acid and once with methanol within 4 minutes, then dried and analyzed using a scintillation counter.

[4] = molecular target: JAK3(h) (Homo sapiens (Human), UniProt P52333); test: In vitro activity assay of JAK3 kinase (radiometric, Eurofins); format: biochemical
Experimental: as §3, §4
as §5, with “JAK3(h)” for “JAK1(h)”, “8” for “20”, “MOPS” for “Tris/HCl”, “7.0,” for “7.5,”, “GGEEEEYFELVKKKK,” for “MGEEPLYWSFPAKKK,”

[5] = molecular target: TYK2(h) (Homo sapiens (Human), UniProt P29597); test: In vitro activity assay of TYK2 kinase (radiometric, Eurofins); format: biochemical
Experimental: as §3, §4
as §5, with “TYK2(h)” for “JAK1(h)”, “8” for “20”, “MOPS” for “Tris/HCl”, “7.0,” for “7.5,”, “250” for “500”, “GGMEDIYFEFMGGKKK,” for “MGEEPLYWSFPAKKK,”

[6] = in vitro; settings: human, Caco-2, pH 7.4
Experimental: as §1, §2

[7] = Pharmacokinetic (PK) test in mice; format: in vivo, mice (C57BL/6); settings: mouse, plasma, male C57BL/6 mice
Experimental: Clear solutions obtained by dissolving the test compounds were administered to male mice (C57BL/6) or rats (SD) by tail vein injection and oral gavage (overnight fasting, 7-8 weeks old). After the administration of the test compounds, blood was collected from the mandibular vein and centrifuged to obtain plasma at 0.117, 0.333, 1, 2, 4, 7 and 24 h for the intravenous injection group (1 mg/kg), and at 0.25, 0.5, 1, 2, 4, 8 and 24 h for the oral gavage group (3 mg/kg). The plasma concentration was measured by LC-MS/MS, and the relevant pharmacokinetic parameters were calculated by WinNonlin™ Version 6.3 pharmacokinetic software using non-compartmental model linear logarithmic trapezoid method.

[8] = test system: adjuvant-induced arthritis (AIA); test: Adjuvant-induced arthritis (AIA) in rats, in-vivo pharmacodynamic study; design: species or system Lewis rats; settings: rat AIA
Experimental: The compounds disclosed herein were tested for their efficacy on arthritis using a model of adjuvant-induced arthritis in rat. Female, 160 to 180 gram Lewis rats were anesthetized with isoflurane and injected subcutaneously with 0.1 mL of Mycobacterium tuberculosis suspension in the left hind paw. The animals were grouped and administered with thetest compounds after 13 days of modeling, for example, the rats were given different doses as shown in Table 4-2. The test compound 1-13 was dissolved in a mixed menstruum of [5% DMSO, 95% (12% SBE-β-CD), 0.5% MC]. The female Lewis rats were orally administered 2 times daily (8 animals in each group).

[9] = Basic pKa of the compound; format: physicochemical
Excerpt: The present disclosure also performs salt-forming screening on L-aspartic acid, fumaric acid, L-tartaric acid and citric acid. Using the crystal form A of the compound represented by formula (II) as raw material, according to the basic pKa (4.47) of the compound and the rough solubility of the starting material in different solvents at room temperature, L-aspartic acid, fumaric acid, L-tartaric acid and citric acid were selected as acidic ligands (molar ratio of free state to acidic ligand was 1:1), and the specific steps of the screening test of five solvent systems as shown in Table 24 were as follows: about 20 mg of the starting crystal form A of the compound represented by formula (II) and equimolar amounts of the above acid were weighed into an HPLC vial, and 0.5 mL of the following solvent were added thereto and mixed to obtain a suspension. After suspending and stirring at room temperature for 3 days, the solid was separated by centrifugation and dried under vacuum at room temperature for about 4 hours.

[10] = iv 1 mg/kg, oral gavage 3 mg/kg

Sequence of TYK2(h) (P29597 whole entry): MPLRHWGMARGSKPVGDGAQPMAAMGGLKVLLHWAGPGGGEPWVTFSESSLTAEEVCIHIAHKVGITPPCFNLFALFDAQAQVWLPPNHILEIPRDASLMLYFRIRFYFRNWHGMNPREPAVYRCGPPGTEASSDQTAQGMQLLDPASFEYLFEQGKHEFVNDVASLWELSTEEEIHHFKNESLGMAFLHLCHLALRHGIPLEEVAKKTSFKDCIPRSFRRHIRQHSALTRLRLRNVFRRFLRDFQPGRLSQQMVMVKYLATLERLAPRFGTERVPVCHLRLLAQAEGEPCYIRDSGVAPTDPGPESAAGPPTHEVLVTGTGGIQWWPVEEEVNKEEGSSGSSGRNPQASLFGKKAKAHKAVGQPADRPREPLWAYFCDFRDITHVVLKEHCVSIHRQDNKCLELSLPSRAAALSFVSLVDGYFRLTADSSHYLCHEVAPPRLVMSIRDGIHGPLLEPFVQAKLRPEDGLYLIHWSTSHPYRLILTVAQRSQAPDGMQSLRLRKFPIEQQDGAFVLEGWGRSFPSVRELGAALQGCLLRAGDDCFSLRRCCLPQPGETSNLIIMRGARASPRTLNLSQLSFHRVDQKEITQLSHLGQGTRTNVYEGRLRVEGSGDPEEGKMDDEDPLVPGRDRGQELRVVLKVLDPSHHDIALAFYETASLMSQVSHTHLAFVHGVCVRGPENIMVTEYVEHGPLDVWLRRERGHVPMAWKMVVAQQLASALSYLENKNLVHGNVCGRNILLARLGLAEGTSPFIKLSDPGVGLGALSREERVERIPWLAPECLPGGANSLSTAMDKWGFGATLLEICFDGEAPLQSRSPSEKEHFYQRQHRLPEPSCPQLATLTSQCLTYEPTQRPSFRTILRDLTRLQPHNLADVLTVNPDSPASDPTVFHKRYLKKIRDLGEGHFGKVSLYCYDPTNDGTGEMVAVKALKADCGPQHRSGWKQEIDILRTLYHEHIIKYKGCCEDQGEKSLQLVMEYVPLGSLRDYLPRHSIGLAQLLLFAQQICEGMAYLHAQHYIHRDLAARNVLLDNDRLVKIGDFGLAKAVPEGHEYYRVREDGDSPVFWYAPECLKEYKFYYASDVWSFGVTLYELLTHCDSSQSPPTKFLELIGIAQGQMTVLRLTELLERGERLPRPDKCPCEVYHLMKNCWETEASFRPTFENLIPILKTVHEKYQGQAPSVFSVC
Sequence of JAK2(h) (O60674 whole entry): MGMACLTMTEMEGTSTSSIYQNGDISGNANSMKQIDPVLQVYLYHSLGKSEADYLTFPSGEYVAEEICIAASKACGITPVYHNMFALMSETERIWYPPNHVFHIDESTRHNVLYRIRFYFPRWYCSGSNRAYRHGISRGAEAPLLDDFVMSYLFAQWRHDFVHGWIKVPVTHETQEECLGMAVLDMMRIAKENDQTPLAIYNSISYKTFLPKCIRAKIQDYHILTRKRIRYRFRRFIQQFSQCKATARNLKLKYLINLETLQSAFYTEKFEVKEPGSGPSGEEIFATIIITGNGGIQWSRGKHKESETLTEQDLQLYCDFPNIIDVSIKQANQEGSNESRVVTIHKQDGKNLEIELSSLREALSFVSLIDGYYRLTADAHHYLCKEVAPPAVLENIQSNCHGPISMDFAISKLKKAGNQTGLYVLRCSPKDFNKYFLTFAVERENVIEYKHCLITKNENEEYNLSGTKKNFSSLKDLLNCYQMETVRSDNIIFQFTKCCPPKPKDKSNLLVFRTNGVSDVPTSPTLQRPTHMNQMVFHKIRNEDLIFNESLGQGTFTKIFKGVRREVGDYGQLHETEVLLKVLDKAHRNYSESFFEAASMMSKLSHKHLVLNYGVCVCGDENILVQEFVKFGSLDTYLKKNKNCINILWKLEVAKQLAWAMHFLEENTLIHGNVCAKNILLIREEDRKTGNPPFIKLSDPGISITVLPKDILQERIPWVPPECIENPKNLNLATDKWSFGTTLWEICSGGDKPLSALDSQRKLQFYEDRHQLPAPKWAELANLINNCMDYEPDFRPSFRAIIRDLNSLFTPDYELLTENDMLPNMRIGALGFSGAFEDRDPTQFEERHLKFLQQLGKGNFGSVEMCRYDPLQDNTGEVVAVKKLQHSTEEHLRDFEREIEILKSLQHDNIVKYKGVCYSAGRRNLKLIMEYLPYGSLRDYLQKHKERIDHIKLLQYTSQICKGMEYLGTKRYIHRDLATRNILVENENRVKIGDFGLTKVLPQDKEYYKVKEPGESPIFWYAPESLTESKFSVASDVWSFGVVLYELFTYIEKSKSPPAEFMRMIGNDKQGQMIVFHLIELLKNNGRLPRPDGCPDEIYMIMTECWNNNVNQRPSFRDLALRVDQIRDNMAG
Sequence of JAK3(h) (P52333 whole entry): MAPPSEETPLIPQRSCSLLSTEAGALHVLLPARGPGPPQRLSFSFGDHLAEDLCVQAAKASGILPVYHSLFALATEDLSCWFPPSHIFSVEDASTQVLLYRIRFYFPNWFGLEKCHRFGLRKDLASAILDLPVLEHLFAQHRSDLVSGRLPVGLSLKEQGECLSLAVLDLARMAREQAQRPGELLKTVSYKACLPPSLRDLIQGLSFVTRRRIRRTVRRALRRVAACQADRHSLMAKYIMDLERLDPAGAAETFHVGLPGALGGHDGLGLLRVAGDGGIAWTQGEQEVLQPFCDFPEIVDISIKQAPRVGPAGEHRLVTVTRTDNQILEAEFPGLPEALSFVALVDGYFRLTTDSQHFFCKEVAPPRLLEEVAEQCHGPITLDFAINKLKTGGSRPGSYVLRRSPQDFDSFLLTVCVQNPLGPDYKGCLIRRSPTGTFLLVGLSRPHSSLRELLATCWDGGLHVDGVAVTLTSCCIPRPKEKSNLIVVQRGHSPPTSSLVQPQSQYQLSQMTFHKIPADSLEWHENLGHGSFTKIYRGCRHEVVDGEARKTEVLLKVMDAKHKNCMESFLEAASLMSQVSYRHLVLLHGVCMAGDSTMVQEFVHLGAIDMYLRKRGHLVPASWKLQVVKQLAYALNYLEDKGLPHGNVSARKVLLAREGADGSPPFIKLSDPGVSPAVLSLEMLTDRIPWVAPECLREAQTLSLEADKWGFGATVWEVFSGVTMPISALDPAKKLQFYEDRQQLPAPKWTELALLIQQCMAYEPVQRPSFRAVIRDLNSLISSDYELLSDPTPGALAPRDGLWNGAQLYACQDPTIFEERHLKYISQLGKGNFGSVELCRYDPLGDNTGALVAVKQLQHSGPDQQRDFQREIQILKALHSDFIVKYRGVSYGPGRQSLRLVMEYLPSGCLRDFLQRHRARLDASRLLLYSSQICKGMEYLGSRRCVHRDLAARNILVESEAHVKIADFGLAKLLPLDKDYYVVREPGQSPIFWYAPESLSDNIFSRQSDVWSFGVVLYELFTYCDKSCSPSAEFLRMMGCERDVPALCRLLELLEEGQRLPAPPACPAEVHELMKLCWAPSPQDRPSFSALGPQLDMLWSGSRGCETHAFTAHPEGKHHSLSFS
Sequence of JAK1(h) (P23458 whole entry): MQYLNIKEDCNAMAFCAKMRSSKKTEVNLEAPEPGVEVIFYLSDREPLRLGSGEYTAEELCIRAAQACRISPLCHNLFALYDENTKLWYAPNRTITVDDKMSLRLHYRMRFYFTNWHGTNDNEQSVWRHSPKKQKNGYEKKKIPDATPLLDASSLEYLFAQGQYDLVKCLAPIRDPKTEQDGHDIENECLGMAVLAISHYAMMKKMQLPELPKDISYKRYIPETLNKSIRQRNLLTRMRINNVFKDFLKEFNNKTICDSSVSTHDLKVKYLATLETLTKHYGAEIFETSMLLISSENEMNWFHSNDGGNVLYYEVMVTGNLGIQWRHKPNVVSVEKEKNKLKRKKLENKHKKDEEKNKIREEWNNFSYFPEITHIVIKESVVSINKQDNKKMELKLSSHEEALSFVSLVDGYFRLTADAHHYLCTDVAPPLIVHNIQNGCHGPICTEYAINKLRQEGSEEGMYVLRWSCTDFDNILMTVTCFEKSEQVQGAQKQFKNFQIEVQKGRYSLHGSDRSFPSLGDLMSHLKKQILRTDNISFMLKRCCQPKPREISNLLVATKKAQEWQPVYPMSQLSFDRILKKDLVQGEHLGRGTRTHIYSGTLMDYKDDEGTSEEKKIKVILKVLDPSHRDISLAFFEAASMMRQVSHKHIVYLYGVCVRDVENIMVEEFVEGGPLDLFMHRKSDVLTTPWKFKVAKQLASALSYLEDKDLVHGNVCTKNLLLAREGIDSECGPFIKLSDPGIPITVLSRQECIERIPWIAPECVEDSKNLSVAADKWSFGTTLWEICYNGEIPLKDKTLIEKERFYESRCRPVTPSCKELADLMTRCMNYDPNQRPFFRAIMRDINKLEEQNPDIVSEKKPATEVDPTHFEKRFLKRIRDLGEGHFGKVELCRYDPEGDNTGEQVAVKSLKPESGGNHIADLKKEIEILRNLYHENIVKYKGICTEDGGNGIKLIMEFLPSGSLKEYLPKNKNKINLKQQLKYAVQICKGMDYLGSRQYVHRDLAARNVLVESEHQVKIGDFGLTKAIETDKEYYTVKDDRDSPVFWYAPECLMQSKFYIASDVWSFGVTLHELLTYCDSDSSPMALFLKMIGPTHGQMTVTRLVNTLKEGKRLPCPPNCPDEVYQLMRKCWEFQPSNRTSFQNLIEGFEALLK

| Mean apparent permeability coefficient Mean Papp A to B [1] | IC50 [2] | IC50 [3] | IC50 [4] | IC50 [5] | Papp A→B at 2 h, 2 μM [6] | Papp B→A at 2 h, 2 μM [6] | efflux ratio at 2 h, 2 μM [6] | AUC(0-inf) [7, 10] | Cmax [7, 10] | half-life [7, 10] | bioavailability ([7]; oral gavage 3 mg/kg vs iv 1 mg/kg) | pKa [9] | Structure (SMILES) | therapeutic effect (inhibition rate versus menstruum control group) ([8]; 3 mg/kg and 10 mg/kg, P<0.0001) | Inhibition on area under the clinical score curve (AUC) ([8]; 3 mg/kg oral 2 times daily) | Inhibition on area under the clinical score curve (AUC) ([8]; 10 mg/kg oral 2 times daily) |
| --- | --- | --- | --- | --- | --- | --- | --- | --- | --- | --- | --- | --- | --- | --- | --- | --- |
| 0.16 10^−6 cm/s |  |  |  |  |  |  |  |  |  |  |  |  | CC(C)(C)NCC(O)COc1cccc2c1CC(O)C(O)C2 (stereo not shown) [Nadolol] |  |  |  |
|  | 1 nM | 8 nM | 118 nM | 15 nM | 28.6 ×10⁻⁶ cm/s | 31.2 ×10⁻⁶ cm/s | 1.09 | 12.8 µM·h | 6 µM | 113 min | 88.4% | 4.47 | CN(c1ncnc2[nH]ccc12)[C@@H]1CCc2cc(C#N)nn2C1 | significant therapeutic effect | 49.6% | 60.5% |

Reference: patent publication US20240002404A1, “SALT OF PYRROLOPYRIMIDINE COMPOUND, CRYSTALLINE FORM THEREOF, AND APPLICATION THEREOF” (GUANGZHOU JOYO PHARMATECH CO., LTD, priority 2020, published 2024)
